Experimental data from ChEMBL document CHEMBL4507319 (2021).

How the values were obtained:
Settings in all cases: Compound concentration 1000.0 nM
[1] = system: Epidermal growth factor receptor (Homo sapiens), P00533 [L858R,T790M]
[2] = target: Cyclin-dependent kinase 9 (Homo sapiens) (UniProt P50750)
[3] = system: Epidermal growth factor receptor (Homo sapiens), P00533 [L858R]
[4] = target: Serine/threonine-protein kinase B-raf (Homo sapiens) (UniProt P15056)
[5] = target: Serine/threonine-protein kinase PAK 5 (Homo sapiens) (UniProt Q9P286)
Serine/threonine-protein kinase PAK 5 (Homo sapiens), sequence (Q9P286 whole entry, looked up): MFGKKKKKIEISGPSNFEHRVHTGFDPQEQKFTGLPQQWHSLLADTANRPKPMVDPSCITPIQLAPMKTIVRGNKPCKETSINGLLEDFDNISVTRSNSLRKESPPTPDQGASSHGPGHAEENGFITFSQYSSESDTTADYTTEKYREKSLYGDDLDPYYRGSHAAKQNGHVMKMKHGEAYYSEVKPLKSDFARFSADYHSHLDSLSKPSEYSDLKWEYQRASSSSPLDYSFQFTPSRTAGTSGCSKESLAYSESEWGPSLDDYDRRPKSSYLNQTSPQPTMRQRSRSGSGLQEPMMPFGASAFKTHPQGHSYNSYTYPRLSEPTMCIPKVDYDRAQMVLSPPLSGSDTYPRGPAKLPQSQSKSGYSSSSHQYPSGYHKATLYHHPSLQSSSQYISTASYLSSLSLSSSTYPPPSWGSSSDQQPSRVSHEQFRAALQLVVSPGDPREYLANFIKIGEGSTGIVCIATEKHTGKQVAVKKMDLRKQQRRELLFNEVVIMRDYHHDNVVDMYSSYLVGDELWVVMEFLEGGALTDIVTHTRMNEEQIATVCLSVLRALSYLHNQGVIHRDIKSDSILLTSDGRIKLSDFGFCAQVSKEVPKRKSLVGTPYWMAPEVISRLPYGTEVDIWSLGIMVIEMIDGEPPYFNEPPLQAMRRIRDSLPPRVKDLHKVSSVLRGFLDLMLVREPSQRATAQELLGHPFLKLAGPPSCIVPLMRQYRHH

[6] = target: Phosphatidylinositol 4-phosphate 5-kinase type-1 gamma (Homo sapiens) (UniProt O60331)
[7] = target: STE20/SPS1-related proline-alanine-rich protein kinase (Homo sapiens) (UniProt Q9UEW8)
[8] = target: Cyclin-dependent kinase 18 (Homo sapiens) (UniProt Q07002)
[9] = target: Serine/threonine-protein kinase PAK 3 (Homo sapiens) (UniProt O75914)
Serine/threonine-protein kinase PAK 3 (Homo sapiens), sequence (O75914 whole entry, looked up): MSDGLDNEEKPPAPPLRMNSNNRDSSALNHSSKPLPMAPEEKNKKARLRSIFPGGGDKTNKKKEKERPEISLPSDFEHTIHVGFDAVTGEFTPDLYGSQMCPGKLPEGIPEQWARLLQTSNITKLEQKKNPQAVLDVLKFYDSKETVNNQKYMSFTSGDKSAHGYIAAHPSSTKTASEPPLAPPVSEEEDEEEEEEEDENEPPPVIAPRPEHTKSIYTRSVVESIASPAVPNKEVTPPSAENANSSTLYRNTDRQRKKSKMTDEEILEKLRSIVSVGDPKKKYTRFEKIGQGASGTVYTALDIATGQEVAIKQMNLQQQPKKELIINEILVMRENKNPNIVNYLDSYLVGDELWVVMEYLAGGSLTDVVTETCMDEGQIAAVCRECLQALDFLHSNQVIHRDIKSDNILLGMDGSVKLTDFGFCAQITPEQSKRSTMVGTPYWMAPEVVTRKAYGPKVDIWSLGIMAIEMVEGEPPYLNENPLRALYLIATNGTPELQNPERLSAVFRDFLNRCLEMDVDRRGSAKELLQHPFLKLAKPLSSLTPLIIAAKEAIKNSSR

[10] = target: T1, Serine/threonine-protein kinase Nek9 (Homo sapiens) (UniProt Q8TD19)
T1 sequence (whole entry): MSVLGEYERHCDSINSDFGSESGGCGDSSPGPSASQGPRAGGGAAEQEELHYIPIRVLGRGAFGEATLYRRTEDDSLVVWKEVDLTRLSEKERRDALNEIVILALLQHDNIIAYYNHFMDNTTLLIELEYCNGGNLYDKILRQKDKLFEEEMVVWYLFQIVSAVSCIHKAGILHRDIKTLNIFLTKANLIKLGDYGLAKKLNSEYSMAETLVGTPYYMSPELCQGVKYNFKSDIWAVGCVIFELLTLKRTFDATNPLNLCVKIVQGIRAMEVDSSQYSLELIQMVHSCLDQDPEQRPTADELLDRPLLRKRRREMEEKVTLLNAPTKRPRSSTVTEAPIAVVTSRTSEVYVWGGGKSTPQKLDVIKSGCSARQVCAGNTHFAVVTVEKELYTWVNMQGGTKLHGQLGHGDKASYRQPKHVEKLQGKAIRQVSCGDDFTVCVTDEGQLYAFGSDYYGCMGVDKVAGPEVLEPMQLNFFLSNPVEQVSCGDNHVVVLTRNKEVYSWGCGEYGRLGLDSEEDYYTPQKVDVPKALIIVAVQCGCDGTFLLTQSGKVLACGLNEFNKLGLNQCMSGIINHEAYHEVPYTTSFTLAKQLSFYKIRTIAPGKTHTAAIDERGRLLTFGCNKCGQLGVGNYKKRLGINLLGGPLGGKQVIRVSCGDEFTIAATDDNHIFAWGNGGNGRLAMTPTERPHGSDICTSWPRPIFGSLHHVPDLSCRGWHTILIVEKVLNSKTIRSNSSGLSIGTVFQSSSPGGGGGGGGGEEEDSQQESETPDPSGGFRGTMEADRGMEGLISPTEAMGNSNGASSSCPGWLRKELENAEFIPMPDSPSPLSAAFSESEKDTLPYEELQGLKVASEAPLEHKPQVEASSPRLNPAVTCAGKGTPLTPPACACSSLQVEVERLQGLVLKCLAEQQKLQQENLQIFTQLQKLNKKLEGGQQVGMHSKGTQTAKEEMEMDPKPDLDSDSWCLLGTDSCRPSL

[11] = target: Non-receptor tyrosine-protein kinase TYK2 (Homo sapiens) (UniProt P29597)
Non-receptor tyrosine-protein kinase TYK2 (Homo sapiens), sequence (P29597 whole entry): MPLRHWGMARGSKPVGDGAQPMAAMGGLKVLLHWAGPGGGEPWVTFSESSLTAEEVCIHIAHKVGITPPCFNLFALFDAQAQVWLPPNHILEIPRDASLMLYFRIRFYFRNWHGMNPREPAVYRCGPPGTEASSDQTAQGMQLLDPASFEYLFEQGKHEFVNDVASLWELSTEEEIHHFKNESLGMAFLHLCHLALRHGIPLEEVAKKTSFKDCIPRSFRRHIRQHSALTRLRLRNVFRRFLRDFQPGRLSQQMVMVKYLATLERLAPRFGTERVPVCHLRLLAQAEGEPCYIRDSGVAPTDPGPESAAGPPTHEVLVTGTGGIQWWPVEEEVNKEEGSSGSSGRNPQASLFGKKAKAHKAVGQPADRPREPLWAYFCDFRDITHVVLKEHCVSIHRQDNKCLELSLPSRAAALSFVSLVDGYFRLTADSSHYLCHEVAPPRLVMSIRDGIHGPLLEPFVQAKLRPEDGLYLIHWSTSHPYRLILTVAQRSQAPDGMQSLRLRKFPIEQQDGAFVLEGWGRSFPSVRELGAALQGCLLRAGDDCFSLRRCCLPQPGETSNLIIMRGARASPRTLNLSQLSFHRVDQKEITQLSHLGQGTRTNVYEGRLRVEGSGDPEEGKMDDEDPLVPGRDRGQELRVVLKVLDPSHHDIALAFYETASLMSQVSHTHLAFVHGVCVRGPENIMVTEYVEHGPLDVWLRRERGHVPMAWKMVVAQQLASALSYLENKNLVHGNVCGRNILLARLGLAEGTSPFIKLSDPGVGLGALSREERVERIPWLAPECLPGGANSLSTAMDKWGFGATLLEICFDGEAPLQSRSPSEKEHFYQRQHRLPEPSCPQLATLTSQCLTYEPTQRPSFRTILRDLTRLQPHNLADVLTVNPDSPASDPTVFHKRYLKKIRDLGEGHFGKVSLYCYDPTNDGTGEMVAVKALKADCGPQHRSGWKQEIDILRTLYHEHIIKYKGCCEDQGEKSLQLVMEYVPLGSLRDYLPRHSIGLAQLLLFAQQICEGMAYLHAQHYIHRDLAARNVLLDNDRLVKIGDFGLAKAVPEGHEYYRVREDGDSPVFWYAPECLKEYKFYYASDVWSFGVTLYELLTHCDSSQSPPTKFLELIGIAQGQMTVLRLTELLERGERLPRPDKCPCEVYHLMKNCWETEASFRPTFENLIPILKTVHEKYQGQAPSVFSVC

[12] = target: Casein kinase II subunit alpha' (Homo sapiens) (UniProt P19784)
Casein kinase II subunit alpha' (Homo sapiens), sequence (P19784 whole entry, looked up, canonical isoform): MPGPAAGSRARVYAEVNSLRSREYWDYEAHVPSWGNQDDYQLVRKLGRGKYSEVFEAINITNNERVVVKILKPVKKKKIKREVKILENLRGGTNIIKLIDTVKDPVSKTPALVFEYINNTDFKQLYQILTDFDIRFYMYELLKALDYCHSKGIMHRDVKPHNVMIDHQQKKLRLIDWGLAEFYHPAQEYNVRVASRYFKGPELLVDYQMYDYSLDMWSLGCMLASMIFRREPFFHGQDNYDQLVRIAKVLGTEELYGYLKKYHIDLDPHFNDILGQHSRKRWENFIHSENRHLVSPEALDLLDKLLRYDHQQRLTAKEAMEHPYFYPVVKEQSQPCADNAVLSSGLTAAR

[13] = target: Phosphatidylinositol 4,5-bisphosphate 3-kinase catalytic subunit alpha isoform (Homo sapiens) (UniProt P42336)
[14] = target: Megakaryocyte-associated tyrosine-protein kinase (Homo sapiens) (UniProt P42679)
Megakaryocyte-associated tyrosine-protein kinase (Homo sapiens), sequence (P42679 whole entry): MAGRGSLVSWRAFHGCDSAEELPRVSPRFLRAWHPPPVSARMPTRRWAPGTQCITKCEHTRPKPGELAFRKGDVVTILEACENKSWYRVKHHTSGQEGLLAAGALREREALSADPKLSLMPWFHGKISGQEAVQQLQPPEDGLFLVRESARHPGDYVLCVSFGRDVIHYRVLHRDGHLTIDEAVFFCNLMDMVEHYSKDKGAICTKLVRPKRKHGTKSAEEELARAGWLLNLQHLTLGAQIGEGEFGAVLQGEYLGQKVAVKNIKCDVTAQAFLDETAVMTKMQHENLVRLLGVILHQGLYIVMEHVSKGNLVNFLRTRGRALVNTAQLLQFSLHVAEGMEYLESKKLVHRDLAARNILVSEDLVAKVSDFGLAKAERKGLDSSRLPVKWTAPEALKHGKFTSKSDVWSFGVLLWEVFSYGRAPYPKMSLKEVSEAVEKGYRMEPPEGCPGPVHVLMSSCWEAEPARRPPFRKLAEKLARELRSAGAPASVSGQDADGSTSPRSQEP

[15] = target: Tyrosine-protein kinase Lck (Homo sapiens) (UniProt P06239)
[16] = target: TGF-beta receptor type-2 (Homo sapiens) (UniProt P37173)
TGF-beta receptor type-2 (Homo sapiens), sequence (P37173 whole entry): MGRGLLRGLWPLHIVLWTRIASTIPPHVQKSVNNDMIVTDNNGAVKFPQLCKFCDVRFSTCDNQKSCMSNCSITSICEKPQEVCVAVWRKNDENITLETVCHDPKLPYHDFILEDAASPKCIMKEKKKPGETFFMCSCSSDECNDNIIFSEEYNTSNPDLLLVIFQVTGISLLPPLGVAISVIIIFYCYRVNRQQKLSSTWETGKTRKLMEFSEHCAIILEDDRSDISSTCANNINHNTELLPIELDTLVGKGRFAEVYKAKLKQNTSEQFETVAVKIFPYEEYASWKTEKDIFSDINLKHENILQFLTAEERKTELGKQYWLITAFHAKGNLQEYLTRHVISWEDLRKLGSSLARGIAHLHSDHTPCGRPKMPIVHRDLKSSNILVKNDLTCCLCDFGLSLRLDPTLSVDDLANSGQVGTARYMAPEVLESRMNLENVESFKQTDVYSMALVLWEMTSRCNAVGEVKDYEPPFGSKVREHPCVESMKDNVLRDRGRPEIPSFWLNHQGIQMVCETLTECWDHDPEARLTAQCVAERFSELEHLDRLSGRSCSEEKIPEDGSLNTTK

Cyclin-dependent kinase 9 (Homo sapiens), sequence (P50750 whole entry): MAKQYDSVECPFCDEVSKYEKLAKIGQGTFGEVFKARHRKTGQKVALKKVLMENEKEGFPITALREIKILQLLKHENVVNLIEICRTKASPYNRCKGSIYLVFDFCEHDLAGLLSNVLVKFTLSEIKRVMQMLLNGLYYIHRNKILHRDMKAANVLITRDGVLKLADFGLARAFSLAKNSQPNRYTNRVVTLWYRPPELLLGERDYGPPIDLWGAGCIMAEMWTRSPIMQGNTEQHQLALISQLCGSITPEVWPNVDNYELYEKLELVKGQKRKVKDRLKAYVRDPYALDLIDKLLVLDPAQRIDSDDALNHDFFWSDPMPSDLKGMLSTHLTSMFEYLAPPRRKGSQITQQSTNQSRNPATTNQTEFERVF
Serine/threonine-protein kinase B-raf (Homo sapiens), sequence (P15056 whole entry): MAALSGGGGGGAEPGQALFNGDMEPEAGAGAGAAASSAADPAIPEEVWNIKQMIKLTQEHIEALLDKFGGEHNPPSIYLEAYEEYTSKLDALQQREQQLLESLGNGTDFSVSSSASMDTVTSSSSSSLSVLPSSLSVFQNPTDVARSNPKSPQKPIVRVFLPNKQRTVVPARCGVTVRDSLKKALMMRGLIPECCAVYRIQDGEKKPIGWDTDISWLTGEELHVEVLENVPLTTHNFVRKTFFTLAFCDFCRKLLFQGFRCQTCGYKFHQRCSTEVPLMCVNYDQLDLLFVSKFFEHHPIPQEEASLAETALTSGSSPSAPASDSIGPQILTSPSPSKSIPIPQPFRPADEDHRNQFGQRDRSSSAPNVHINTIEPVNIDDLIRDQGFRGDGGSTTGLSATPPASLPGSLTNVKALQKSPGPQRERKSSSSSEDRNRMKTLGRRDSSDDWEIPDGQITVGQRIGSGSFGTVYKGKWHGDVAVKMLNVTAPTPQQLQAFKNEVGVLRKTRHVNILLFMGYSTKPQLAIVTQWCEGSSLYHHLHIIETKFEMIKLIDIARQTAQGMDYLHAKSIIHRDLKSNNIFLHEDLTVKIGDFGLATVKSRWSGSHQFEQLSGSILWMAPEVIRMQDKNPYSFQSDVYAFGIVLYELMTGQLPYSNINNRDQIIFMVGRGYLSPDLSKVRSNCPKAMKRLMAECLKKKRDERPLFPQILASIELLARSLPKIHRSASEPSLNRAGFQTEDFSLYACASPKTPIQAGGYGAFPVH

Compound	residual activity [1] [%]	residual activity [2] [%]	residual activity [3] [%]	residual activity [4] [%]	residual activity [5] [%]	residual activity [6] [%]	residual activity [7] [%]	residual activity [8] [%]	residual activity [9] [%]	residual activity [10] [%]	residual activity [11] [%]	residual activity [12] [%]	residual activity [13] [%]	residual activity [14] [%]	residual activity [15] [%]	residual activity [16] [%]
CCc1ccccc1C(=O)Nc1n[nH]c2c(C)c(F)c(C3C(C#N)=C(C)N(C)C(C)=C3C#N)cc12 [BAY-3827]	97	94	93	78	100	56	100	75	86	93	100	100	100	100	100	82
CC1=C(C#N)C(c2ccc3c(c2)c(NC(=O)c2ccccc2C)nn3C)C(C#N)=C(C)N1 [BAY-974]	93	100	80	47	100	91	92	100	67	100	82	100	100	79	81	99
